Entries after “also recorded” stand apart in the source; their conditions may differ. No end group written: not given here.
Experiments:
[1] = pentapeptide isolated from pig brains; cited from earlier work
[2] = tested on: rabbit fat cells; test: Lipolytic activity in rabbit fat cells (procedure of Li et al.), glycerol production; format: cell-based; settings: for Response: glycerol production: triplicate, mean ± standard error
Excerpt: The lypolytic activity of natural beta-endorphin was compared to the activity of ovine beta-lipotropin hormone in rabbit fat cells using the procedure of Li et al., Arch. Biochem. Biophys. 169, 669 (1975).
^a Micromole of glycerol production per gram of cells per hour.
Determinations in triplicate. Values in mean ± standard error.

[3] = tested on: opiate receptor, guinea pig brain membranes; test: Opiate agonist activity by receptor binding assay (method of Simon et al.), inhibition of stereospecific binding; settings: for Response: percentage of inhibition of stereospecific binding: mean ± standard error from 4 determinations
Experimental: The opiate agonist activity of natural beta-endophine was determined by the method of Simon et al., Proc. Nat. Acad. Sci. 70, 1947 (1973) using guinea pig brain membranes. The results obtained are summarized below in Table 4:
^a Percentage of inhibition of stereospecific binding.
Mean ± standard error from 4 determinations.

## H-Tyr-Gly-Gly-Phe-Met-OH- (H-YGGFM-OH) [pentapeptide isolated from pig brains by Hughes et al]
[1]
  Opiate agonist activity (in words): exhibits opiate agonist activity

## YGGFMTSEKSQTPLVTLFKNAIIKNAHKKGQ [beta-endorphin]
[2]; compared with beta-lipotropin hormone
  Lipolytic activity in comparison to the complete hormone (in words): very low
[2]; dose 1.1 (unit not given)
  Response: glycerol production: 0.66 ± 0.28 Micromole of glycerol producti
[2]; dose 10.0 (unit not given)
  Response: glycerol production: 1.42 ± 0.37 Micromole of glycerol producti
[3]
  Opiate agonist activity (in words): potent opiate agonist activity; also recorded: significant opiate agonist activity
[3]; 95% confidence limit of 300-392, λ = 0.044
  Relative potency to normorphine: 342%
[3]; dose 1.0 x 10^-7 M
  Response: percentage of inhibition of stereospecific binding: 60 ± 0.7%
[3]; dose 10.0 x 10^-7 M
  Response: percentage of inhibition of stereospecific binding: 83 ± 0.2%
[3]; molar basis
  Potency relative to normorphine on a molar basis: 3.42 times

## Oc1ccc2c3c1O[C@H]1[C@@H](O)C=C[C@H]4[C@@H](C2)NCC[C@@]341 [Normorphine, reference compound]
[3]; dose 0.7 x 10^-7 M
  Response: percentage of inhibition of stereospecific binding: 28 ± 0.8%
[3]; dose 7.0 x 10^-7 M
  Response: percentage of inhibition of stereospecific binding: 70 ± 0.9%
